Laboratory results published in US20230129866A1 (PureTech LYT 100, Inc., priority 2020, published 2023).

Tests used:
L929 cells [1] = assay: TGF-induced soluble collagen synthesis in L929 cells (ELISA); type: cell-based; conditions: 500 μM, 72 hrs, FIG. 4D
Method: (§1) Five thousand L929 cells were plated in complete DMEN and incubated until confluency for 3 days.

L929 cells [2] = assay: TGF-induced collagen synthesis in L929 cells, 96-well plate format (SIRCOL); type: cell-based; conditions: 72 hrs, FIG. 4C
Method: Five thousand L929 cells were plated in complete DMEN and incubated until confluency for 3 days. Medium was removed and complete DMEM containg Prolin (20 μg/ml) and ascorbic acid (10 μM) was added. […] Cells were further incubated for 72 hrs. Supernatant was removed, 0.5% glutaraldehyde was added for 30 min at RT, removed, washed 3× with ddwater, 0.5 M acetic acid was added for 30 min at RT, removed, washed with water, air dried and 100 μl SIRCOL dye was added for 5 h at RT. Dye was removed, plate was washed extensively under running water, air dried and 200 μl of 0.5 M NaOH was added, plates were shaken at RT for 1 h, and OD was determined at 600 nm.

[3] = human, in vivo
Method: (§2) Up to 5 dosing cohorts are planned in Part 1.
(§3) Additional cohorts and intermediate doses may be selected in lieu of predefined doses as noted and in accordance with safety and tolerability responses, but doses will not exceed 1000 mg BID or a total daily dose of 2000 mg.
(§4) A standardised lunch will be served ≥4 h post breakfast and ≥4 h prior to dinner. An evening snack will be served ≥3 h following evening study medication administration. No additional fluids will be allowed during the 1 h pre- and post-doses. On Day 6, subjects will replicate mealtimes as scheduled on Day 1-5.
(§5) Plasma PK parameters (non-compartmental or compartmental analysis as appropriate) will include, but are not limited to: • Following single dose: Tmax, tlag, Cmax, AUC0-4, AUC0-last, t1/2, AUC0-inf, lambda z, %AUCext, CL/F, Vz/F, Cmax/D, AUC0-last/D, AUC0-inf/D and MRT (D is dose) • After repeated doses: Ctrough, Ctrough/D • Following repeated doses on last day: Tmax, Cmax, Cavg, tlag, t1/2, AUC0-4, AUC0-last; AUC0-inf, lambda z, %AUCext, CLss/F, Vzss/F, MRT, PTF, Rac(AUC), Rac(Cmax), Cmax/D, AUClast/D, AUC0-inf/D and Rae (accumulation ratio).

[4] = rat, in vivo
Method: The original male TK animals received 1000 mg/kg of SD-559 on Day 1 and continued on study. The protocol was amended to add additional TK male animals in Group 6 for Day 1 collection of TK samples at 875 mg/kg.
Blood samples were collected from 3 subsets of 3 animals/sex on Day 1 and Day 28 at pre-dose, 0.25, 0.5, 1, 2, 4. 8 and 24 hours (hr) post-dose for groups 2 to 6 and from one subset of 3 animals/sex at 0.25 hr post-dose for the vehicle group (group 1). […] Non-compartmental analysis (NCA) of plasma concentration data was conducted using Phoenix® WinNonlin®, version 8.0.

[5] = test system: Primary Mouse Lung Fibroblasts (PMLF); assay: Survival and TGF-β-induced proliferation of Primary Mouse Lung Fibroblasts (MTT); type: cell-based; conditions: 500 μM, 72 hrs, FIG. 3A
Method: Primary Mouse lung fibroblast were prepared as follows. One lung was removed from 2 months old male BaIbC Mouse, perfused with sterile PBS, minced and incubated in 2 ml of serum free Dulbecco's Modified Eagle's Medium (DMEM) containing 100 μg/ml of collagenase I for one hour at 37° C. Each sample was centrifuged at 1500 r.p.m (revolution per minute) for 5 minutes, washed three times with PBS and the final cellular pellet was resuspended in DMEM supplemented with 10% serum and Pen/Strep, and incubated in 150 mm plates at 37 °C with 80% humidity and […]. The growth medium was removed and fresh medium was added every day for 10 days.
At the end of 10-day incubation period above, lung fibroblasts were confluent. […] One hundred μL of the growth medium was removed and 20 μL of MTT stock solution (prepared in PBS at 5.5 mg/ml concentration) was added and cells were incubated for 4 hours, then 100 μl of DMSO was added, and absorbance of developed color was monitored at 540-690 nm.

L929 cells [6] = assay: TGF-induced soluble fibronectin synthesis in L929 cells (ELISA); type: cell-based; conditions: 500 μM; FIG. 4E
Method: as §1
Fibronectin is another important component of fibrotic lungs as it is induced by TGF-β and functions both as a structural component of extra cellular matrix as well as well as a ligand for integrin receptors. Just like soluble collagen, binding of fibronectin to integrin receptors induces the proliferation of fibroblast and epithelial cells of the lungs.

[7] = Phase 1 multiple ascending dose (MAD) study Part 1, healthy volunteers (PK and safety); conditions: 100 to 1000 mg BID, 5 days
Method: as §2, §3, §4, §5

[8] = Phase 1 food effect study Part 2 (Cohort 5), single 500 mg dose fed vs fasted; type: in vivo, human; conditions: LYT-100 @500 mg single dose
Method: The comparison will be based on Day 1, Day 2 and Day 3 PK plasma samples after the first dose of study drug on Day 1 under fast and fed conditions of Part 2.
Subjects will be admitted to the CRU on Day-1 and will fast overnight for at least 10 h.

NASH mice = assay: Streptozotocin/high fat diet NASH mouse model: Sirius-red fibrosis area and NAFLD Activity Score; type: in vivo; conditions: n = 8
Source text: Non-alcoholic steatohepatitis (NASH) is characterized by lobular inflammation, hepatocyte ballooning and degeneration progressing to liver fibrosis. […] In addition, nine non-NASH mice were fed with a normal diet and monitored.
While LYT-100 hepatocyte ballooning was similar to Vehicle, scores were lower for lobular inflammation and steatosis. (Table 6 and 7).

L929 cells [9] = assay: Survival of L929 cells (MTT); type: cell-based; conditions: 500 μM, TGFb 5 ng/ml, 72 hrs, FIG. 4A
Method: Five thousand L929 cells were plated in completed DMEN and incubated until confluency for 3 days. Medium was removed and complete DMEM containg Prolin (20 μg/ml) and ascorbic acid (10 μM) was added. […] 100 μL of medium was removed, 20 μL MTT solution was added for 4 hrs, then 100 μl of DMSO was added, and absorbance of developed dark pink color was determined at […].

LPS-induced plasma IL-6 = LPS-induced plasma IL-6 after oral pretreatment in rats; type: in vivo, Sprague-Dawley rats; conditions: Mean ± St. Dev, n = 6-8; for Plasma IL-6 concentrations 4 hours after LPS: vehicle 13989 ± 6125; for Plasma IL-6 concentrations 1.5 hours after LPS: vehicle 40423 ± 8653
Method: LPS was diluted with sterile saline to […] and sonicated at 40° C. for 20 minutes to generate a stock solution and stored at 4° C. Each day of use, the stock solution was further diluted to 0.03 mg/mL in sterile saline.
Male Sprague-Dawley rats with indwelling femoral and jugular venous catheters (n=6-8 per dose and test article group) were used in this study. […] Sixty minutes after the oral dose, 0.03 mg/kg of LPS in 1 mL/kg saline was infused into the jugular vein.
Blood samples were collected from the femoral vein into heparin-coated syringes 15 minutes prior to the LPS infusion (45 minutes after oral doses of test article), 90 minutes after the LPS infusion and 4 hours after the LPS infusion. Plasma was prepared by centrifugation of the blood samples at 14,000 rpm for 10 minutes. Plasma samples were stored at −70 ° C. until analysis.

[10] = test system: ICAM-1; vascular hyperpermeability; TGF-β and downstream signaling; assay: Other studies for pirfenidone mechanisms in acute and chronic interstitial lung diseases
[11] = 30 mg/kg oral pretreatment 1 hour prior to LPS injection
[12] = 100 mg/kg oral pretreatment 1 hour prior to LPS injection
[13] = 300 mg/kg oral pretreatment 1 hour prior to LPS injection

## [2H]C([2H])([2H])c1ccc(=O)n(-c2ccccc2)c1 [LYT-100, 5-(methyl-d3)-1-phenylpyridin-2-(1H)-one]
L929 cells [1]
  Effect on soluble collagen levels in the absence of TGF-β-induction: signficantly reduced
L929 cells [1]; TGF-β 5 ng/ml
  Effect on TGF-β-induced soluble collagen levels: significantly inhibits
L929 cells [2]; 500 μM 1 h prior to TGF-β 5 ng/ml
  Effect on TGF-β-induced total collagen levels: inhibited or reduced
L929 cells [2]; 500 μM
  Effect on total collagen level in the absence of TGF-β induction: signficantly inhibited or reduced
[3]
  Dose dependence of AUC96-108 across all dose Cohorts: linear dose proportionality
  Dose limiting toxicities: no dose limiting toxicities observed
  Grading of adverse events: mild and transient
[3]; 5 days
  AEs considered possibly related to treatment: 33
  Most common AE, headache: subjects: 25%
  Subjects who experienced adverse events: 33 subjects
  Total adverse events (AEs): 72
[4]
  Accumulation after multiple dosing for 28 Days: No accumulation
[5]
  Effect on survival of PMLF alone: did not affect the survival
L929 cells [6]
  Effect on soluble fibronectin levels, in the absence and presence of TGF-β-induction: signficantly reduced
[7]
  Maximally tolerated dose: no maximally tolerated dose was reached
[8]
  AUC, % Change Fed vs Fasted: −19%
  Cmax, % Change Fed vs Fasted: −23%
  Tmax, % Change Fed vs Fasted: +25%
NASH mice; NAS component, score 0 = <5%, LYT-100 30 mg/kg twice daily
  Steatosis score 0: number of animals: 4
NASH mice; NAS component, score 1 = 5-33%, LYT-100 30 mg/kg twice daily
  Steatosis score 1: number of animals: 3
NASH mice; NAS component, score 1 = <2 foci/200x, LYT-100 30 mg/kg twice daily
  Lobular Inflammation score 1: number of animals: 5
NASH mice; NAS component, score 2 = 2-4 foci/200x, LYT-100 30 mg/kg twice daily
  Lobular Inflammation score 2: number of animals: 3
NASH mice; NAS component, score 2 = >33%-66%, LYT-100 30 mg/kg twice daily
  Steatosis score 2: number of animals: 1
NASH mice; NAS component, score 2 = Many cells/prominent ballooning, LYT-100 30 mg/kg twice daily
  Hepatocyte ballooning score 2: number of animals: 8
NASH mice; Sirius-red stained liver sections, LYT-100 30 mg/kg orally twice daily from 6-9 weeks of age, p < 0.01 vs Vehicle (1.02 ± 0.20)
  Fibrosis Area (%) (mean ± SD): 0.64 ± 0.31 %
L929 cells [9]
  Effect on survival of L929 cells: does not affect survival
LPS-induced plasma IL-6; [11]
  Plasma IL-6 concentrations 4 hours after LPS: 8174 ± 5504 pg/mL
  Plasma IL-6 concentrations 1.5 hours after LPS: 18197 ± 6484 pg/mL
LPS-induced plasma IL-6; [12]
  Plasma IL-6 concentrations 4 hours after LPS: 4632 ± 5930 pg/mL
  Plasma IL-6 concentrations 1.5 hours after LPS: 21642 ± 17174 pg/mL
LPS-induced plasma IL-6; [13]
  Plasma IL-6 concentrations 4 hours after LPS: 1550 ± 1414 pg/mL
  Plasma IL-6 concentrations 1.5 hours after LPS: 13519 ± 8674 pg/mL
[10]
  Effect on ICAM-1: downregulates
  Effect on TGF-β and downstream signaling: suppresses
  Effect on vascular hyperpermeability: reduces
